# Source: ChEMBL document CHEMBL4689842, “EUbOPEN Chemogenomics Library wave 1” (2021)
# Columns and labels:
# U2OS = assay: Incucyte cell viability with U2OS; type: toxicity, cell-based; settings: human, 10 µM, compound concentration 10 uM
# HEK-293T = assay: Incucyte cell viability with HEK293T; type: toxicity, cell-based; settings: human, 10 µM, compound concentration 10 uM
# [1] = 0 h, replicate number 2, timepoint 0 hours
# [2] = 12 h, replicate number 2, timepoint 12 hours
# [3] = 18 h, replicate number 1, timepoint 18 hours
# [4] = 24 h, replicate number 1, timepoint 24 hours
# [5] = 0 h, replicate number 1, timepoint 0 hours
# [6] = 6 h, replicate number 1, timepoint 6 hours
# [7] = 12 h, replicate number 1, timepoint 12 hours
# [8] = 18 h, replicate number 2, timepoint 18 hours
# [9] = 24 h, replicate number 2, timepoint 24 hours
# [10] = 6 h, replicate number 2, timepoint 6 hours
# Note: filed as whole numbers so only -1 and 0 and 1 occur.
Structure (SMILES),Growth Rate (U2OS; [1]),Growth Rate (U2OS; [2]),Growth Rate (U2OS; [3]),Growth Rate (U2OS; [4]),Growth Rate (HEK-293T; [5]),Growth Rate (HEK-293T; [6]),Growth Rate (HEK-293T; [7]),Growth Rate (HEK-293T; [3]),Growth Rate (HEK-293T; [4]),Growth Rate (U2OS; [5]),Growth Rate (U2OS; [6]),Growth Rate (U2OS; [7]),Growth Rate (U2OS; [8]),Growth Rate (HEK-293T; [1]),Growth Rate (HEK-293T; [2]),Growth Rate (HEK-293T; [9]),Growth Rate (U2OS; [9]),Growth Rate (U2OS; [10]),Growth Rate (HEK-293T; [8]),Growth Rate (HEK-293T; [10])
Cl.O=c1c2cccn2c2ccccc2n1CCCN1CCC(c2ccc(Cl)cc2)CC1,0,1,1,1,0,0,0,0,0,–,–,–,–,–,–,–,–,–,–,–
COc1cccc2cc(-c3nc([C@H]4CC[C@H](C(=O)O)CC4)n4ncnc(N)c34)[nH]c12 [OSI-027],–,–,0,0,1,0,0,0,0,1,1,1,1,–,–,–,–,–,–,–
CCCS(=O)(=O)Nc1ccc(F)c(C(=O)c2c[nH]c3ncc(Cl)cc23)c1F [PLX-4720],–,1,0,0,0,0,0,0,0,0,1,0,–,1,–,–,–,–,–,–
Cc1ccc2nc(NCCN)c3ncc(C)n3c2c1.O=C(O)C(F)(F)F.O=C(O)C(F)(F)F,–,–,0,0,0,0,0,0,0,0,0,0,–,1,–,–,–,–,–,–
O=C1NC(=O)C(c2cnc3ccccn23)=C1c1cn2c3c(cc(F)cc13)CN(C(=O)N1CCCCC1)CC2 [LY-2090314],–,–,0,0,0,0,–,1,1,0,0,0,–,–,0,0,–,–,–,–
Cl.Oc1ccc2c3c1O[C@H]1c4[nH]c5c(c4C[C@@]4(O)[C@@H](C2)N(CC2CC2)CC[C@]314)C[C@@]1(O)[C@H]2Cc3ccc(O)c4c3[C@@]1(CCN2CC1CC1)[C@H]5O4,–,0,1,1,0,1,1,1,1,0,0,1,0,–,–,0,0,–,–,–
COC(=N)c1nc2ccc3ncnc(Nc4ccc(OC)cc4F)c3c2s1,1,–,0,0,0,0,0,0,0,–,–,0,–,1,–,–,–,1,–,–
CN1C2CCC1CC(OC(c1ccc(F)cc1)c1ccc(F)cc1)C2.Cl (configuration not stated),–,0,0,0,–,0,0,0,0,–,–,1,–,1,–,–,–,0,–,–
S=C(NCCCc1c[nH]cn1)NCCCN(Cc1ccc(Cl)c(Cl)c1)c1ccc(Br)cn1,–,–,0,0,–,0,0,0,0,–,-1,0,–,0,–,–,–,0,–,–
Cc1cn(-c2cc(NC(=O)c3ccc(C)c(Nc4nccc(-c5cccnc5)n4)c3)cc(C(F)(F)F)c2)cn1 [NILOTINIB],0,–,0,0,0,0,1,1,0,–,0,0,1,–,0,1,1,–,–,–
CCOc1cc2ncc(C#N)c(Nc3ccc(OCc4ccccn4)c(Cl)c3)c2cc1NC(=O)/C=C/CN(C)C [NERATINIB],0,–,0,0,0,0,0,0,0,–,0,0,–,–,–,–,–,1,–,–
CCNc1cc(N[C@H]2CC[C@H](O)CC2)nc(Nc2ccc3c(ccn3Cc3ccccc3)c2)n1,–,–,0,0,–,0,0,0,0,0,0,0,–,–,–,–,–,–,–,–
COc1cc(N2CCC(N3CCN(C)CC3)CC2)ccc1Nc1ncnc(Nc2ccccc2S(=O)(=O)C(C)C)n1 [ASP-3026],0,–,0,0,–,0,0,0,0,–,0,0,–,–,–,–,–,1,–,–
CCN1CCN(Cc2ccc(Nc3ncc(F)c(-c4cc(F)c5nc(C)n(C(C)C)c5c4)n3)nc2)CC1.CS(=O)(=O)O,1,–,0,0,0,0,0,0,0,–,–,1,1,–,–,–,–,–,–,–
CCn1c(=O)c(-c2ccc(-c3cncs3)cc2Cl)cc2cnc(Nc3ccc(N4CCN(C)CC4)cc3)nc21,1,1,0,0,0,0,–,–,1,–,–,0,–,–,0,0,–,–,1,–
O=C(Nc1ccc(-c2ccnc(Nc3ccc(N4CCOCC4)cc3)n2)cc1)[C@@H]1CCCN1,0,–,1,1,1,0,0,0,0,–,–,1,–,–,–,–,–,–,–,–
CCn1cc(-c2ccnc3[nH]c(-c4cccc(CN(C)C)c4)cc23)c(-c2ccc(NC(=O)N(C)C)cc2)n1 [GSK-1070916],–,–,0,0,–,0,0,0,0,1,0,0,–,1,–,–,–,–,–,–
Cc1cc(C)c(S(=O)(=O)N(Cc2ccc(-c3cccc(S(C)(=O)=O)c3)cc2)Cc2ccc(C(F)(F)F)o2)c(C)c1,1,–,1,1,0,0,0,0,0,0,–,1,–,–,–,–,–,1,–,1
CCN1CCN(c2ccc(Nc3cc(N(C)C(=O)Nc4c(Cl)c(OC)cc(OC)c4Cl)ncn3)cc2)CC1 [INFIGRATINIB],0,–,0,0,–,0,0,0,0,–,1,0,–,–,–,–,–,–,–,–
COc1cc(N2CCN(C)CC2)ccc1Nc1ncc2c(n1)N(C)c1ccccc1C(=O)N2C,1,–,0,0,1,–,–,1,0,0,1,1,–,–,0,–,–,0,0,1
O=C(Nc1ccc(Cl)cc1)Nc1cccc(-c2cccc(N3CCCC3)n2)c1,–,–,0,0,1,0,0,0,0,0,–,0,–,0,–,–,–,–,–,–
CCN(CC)S(=O)(=O)Nc1cccc(-c2ccc3c(NC(=O)C4CC4)n[nH]c3c2)c1,–,–,0,0,0,0,0,0,0,0,0,0,–,–,–,–,–,–,–,–
